This experiment addresses Protein arginine methyltransferase 5 (PRMT5) (Homo sapiens, UniProt O14744). Nature of the experiment: AlphaLISA methyltransferase assay, […] concentrations, PRMT5 from BPS Bioscience (Cat. No. […]). Format: biochemical. (In general: Alpha assays give light when donor and acceptor beads are brought close together.)

Sequence of Protein arginine methyltransferase 5 (PRMT5) (O14744 2-637): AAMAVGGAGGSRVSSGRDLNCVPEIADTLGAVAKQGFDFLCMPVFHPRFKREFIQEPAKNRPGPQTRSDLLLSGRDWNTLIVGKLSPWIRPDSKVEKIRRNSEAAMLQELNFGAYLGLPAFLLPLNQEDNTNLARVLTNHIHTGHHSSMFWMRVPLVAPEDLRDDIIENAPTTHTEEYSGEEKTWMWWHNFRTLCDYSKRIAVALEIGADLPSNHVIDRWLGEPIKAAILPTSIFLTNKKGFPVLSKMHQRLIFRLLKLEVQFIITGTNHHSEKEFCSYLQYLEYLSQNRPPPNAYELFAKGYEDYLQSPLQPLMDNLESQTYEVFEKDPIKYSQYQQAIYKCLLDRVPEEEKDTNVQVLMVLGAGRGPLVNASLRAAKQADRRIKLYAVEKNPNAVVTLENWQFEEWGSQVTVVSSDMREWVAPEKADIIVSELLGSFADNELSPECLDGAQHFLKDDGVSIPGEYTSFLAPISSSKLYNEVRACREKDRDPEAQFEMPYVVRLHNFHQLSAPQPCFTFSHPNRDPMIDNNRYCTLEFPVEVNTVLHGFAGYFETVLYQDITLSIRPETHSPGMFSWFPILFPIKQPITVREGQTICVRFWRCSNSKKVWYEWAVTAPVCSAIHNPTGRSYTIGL
Sequence of Protein arginine methyltransferase 5 (PRMT5) (Q9BQA1 whole entry partner): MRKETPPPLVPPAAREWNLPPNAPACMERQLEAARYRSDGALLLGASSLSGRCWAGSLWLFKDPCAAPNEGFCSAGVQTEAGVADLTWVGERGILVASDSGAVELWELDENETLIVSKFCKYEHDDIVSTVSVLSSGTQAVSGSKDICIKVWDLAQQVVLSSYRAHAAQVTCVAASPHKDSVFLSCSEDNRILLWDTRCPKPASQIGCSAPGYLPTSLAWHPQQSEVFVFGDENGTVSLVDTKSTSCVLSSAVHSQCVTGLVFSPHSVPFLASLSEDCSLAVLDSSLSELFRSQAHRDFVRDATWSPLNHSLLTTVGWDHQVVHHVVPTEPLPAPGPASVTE

Take `O=C1c2ccccc2C(=O)c2c(NCCCN(CCO)CCO)cccc21` [3039-0164]: half-maximal inhibition (IC50) was put at 63 µM.

Broadly, the IC50 is the midpoint of a concentration-inhibition curve. A low value points to higher potency.

The values are drawn from article PMC9656811, “Structure-Based Discovery and Biological Assays of a Novel PRMT5 Inhibitor for Non-Small Cell Lung Cancer” (Molecules, 2022).
